US7713994B2 (Wyeth LLC, priority 2005, dated 2010)
Like-named read-outs stand apart in the source and are kept apart here.

What was measured:
cyclin D1/cdk 4 enzyme = target: T1, cyclin D1/cdk 4 enzyme (Homo sapiens, UniProt P11802); assay: CDK4 ELISA kinase assay (phospho-Rb ser 795 detection); type: biochemical
T1 construct: made in house; host or cells: Sf9 insect cells, recombinant baculovirus
Procedure, shortened: (§1)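 GST-Rb C-terminal fragment coated on wells; kinase reaction: 200 μM ATP, 0.5 mg/ml BSA, HEPES pH 7.5, 10 mM MgCl2, baculovirus/Sf9 cyclin-CDK, 30° C, 1 h. Readout anti-phospho-Rb Ser795, HRP, TMB, A450. Test compound 10 ug/ml final.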

cyclin E/CDK2 enzyme = target: T2, cyclin E/CDK2 enzyme (Homo sapiens, UniProt P24941); assay: CDK2 ELISA kinase assay (phospho-Rb ser 795 detection); type: biochemical
T2 construct: made in house; host or cells: Sf9 insect cells, recombinant baculovirus
Procedure, shortened: as §1

BT474 = assay: Cytotoxicity assay (SRB), BT474; type: cell-based; details: Homo sapiens, BT-474, 144 h, BT474 cells, 6 days, SRB; read-out: In Vitro Cellular Activity IC50 BT474
Procedure, shortened: (§2)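 Cells seeded overnight at 37 °C, 7% CO2 (BT474 12000, HCT-116 4000, LoVo and MCF-7 6000 cells/well) in RPMI 1640 with 5% FBS, then exposed to compound dilutions for 3 days (BT474 6 days). Survival versus untreated controls by TCA fixation and SRB staining, absorbance 540 nm.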

cyclin B/CDK1 enzyme = target: T3, cyclin B/CDK1 enzyme (Homo sapiens, UniProt P06493); assay: CDK1 ELISA kinase assay (phospho-Rb ser 795 detection); type: biochemical
T3 construct: purchased New England BioLabs; host or cells: Sf9 insect cells, recombinant baculovirus
T3 sequence (P06493 whole entry): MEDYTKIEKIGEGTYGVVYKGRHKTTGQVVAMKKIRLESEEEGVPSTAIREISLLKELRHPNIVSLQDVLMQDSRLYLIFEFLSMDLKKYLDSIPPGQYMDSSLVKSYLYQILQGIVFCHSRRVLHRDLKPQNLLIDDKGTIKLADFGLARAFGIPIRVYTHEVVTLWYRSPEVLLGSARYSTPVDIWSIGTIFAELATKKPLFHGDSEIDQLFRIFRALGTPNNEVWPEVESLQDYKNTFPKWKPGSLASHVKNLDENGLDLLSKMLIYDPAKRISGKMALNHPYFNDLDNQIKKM
T3 sequence (P14635 whole entry partner): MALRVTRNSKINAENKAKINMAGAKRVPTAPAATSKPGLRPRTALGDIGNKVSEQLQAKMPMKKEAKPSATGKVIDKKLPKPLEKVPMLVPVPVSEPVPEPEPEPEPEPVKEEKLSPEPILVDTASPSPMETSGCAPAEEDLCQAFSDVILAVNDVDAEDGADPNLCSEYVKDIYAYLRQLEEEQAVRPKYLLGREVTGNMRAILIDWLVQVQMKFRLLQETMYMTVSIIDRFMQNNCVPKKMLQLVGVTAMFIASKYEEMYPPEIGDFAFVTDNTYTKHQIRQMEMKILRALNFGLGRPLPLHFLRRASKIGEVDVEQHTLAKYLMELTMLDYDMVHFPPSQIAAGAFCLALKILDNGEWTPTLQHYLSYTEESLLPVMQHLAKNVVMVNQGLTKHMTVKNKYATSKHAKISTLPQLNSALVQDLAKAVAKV
Procedure, shortened: as §1

LoVo = assay: Cytotoxicity assay (SRB), LoVo; type: cell-based; details: Homo sapiens, LoVo, 72 h, LoVo cells, 3 days, SRB; read-out: In Vitro Cellular Activity IC50 LOVO
Procedure, shortened: as §2

MCF-7 = assay: Cytotoxicity assay (SRB), MCF-7; type: cell-based; details: Homo sapiens, MCF7, 72 h, MCF-7 cells, 3 days, SRB; read-out: In Vitro Cellular Activity IC50 MCF-7
Procedure, shortened: as §2

HCT-116 = assay: Cytotoxicity assay (SRB), HCT-116; type: cell-based; details: Homo sapiens, HCT-116, 72 h, HCT116 cells, 3 days, SRB; read-out: In Vitro Cellular Activity IC50 HCT116
Procedure, shortened: as §2

[1] = In Vitro Enzyme Assays, 200 μM ATP, read-out: CDK4 IC50
[2] = In Vitro Enzyme Assays, read-out: CDK2 IC50
[3] = In Vitro Enzyme Assays, read-out: CDK1 IC50
[4] = In Vitro Enzyme Assay, cyclin D1/cdk 4, read-out: CDK4 IC50
[5] = In Vitro Enzyme Assay, cyclin E/CDK2, read-out: CDK2 IC50
[6] = In Vitro Enzyme Assay, cyclin B/CDK1, read-out: CDK1 IC50

T1 sequence (P11802 whole entry, species assumed): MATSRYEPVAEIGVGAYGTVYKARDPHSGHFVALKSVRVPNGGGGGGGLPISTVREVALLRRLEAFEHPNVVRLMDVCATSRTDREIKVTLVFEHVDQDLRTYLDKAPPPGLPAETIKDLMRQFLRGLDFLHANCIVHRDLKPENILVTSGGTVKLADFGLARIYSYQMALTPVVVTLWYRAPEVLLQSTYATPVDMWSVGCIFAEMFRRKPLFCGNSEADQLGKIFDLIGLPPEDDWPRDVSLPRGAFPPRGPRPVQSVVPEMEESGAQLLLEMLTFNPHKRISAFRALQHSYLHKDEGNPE
T1 sequence (P24385 whole entry partner, species assumed): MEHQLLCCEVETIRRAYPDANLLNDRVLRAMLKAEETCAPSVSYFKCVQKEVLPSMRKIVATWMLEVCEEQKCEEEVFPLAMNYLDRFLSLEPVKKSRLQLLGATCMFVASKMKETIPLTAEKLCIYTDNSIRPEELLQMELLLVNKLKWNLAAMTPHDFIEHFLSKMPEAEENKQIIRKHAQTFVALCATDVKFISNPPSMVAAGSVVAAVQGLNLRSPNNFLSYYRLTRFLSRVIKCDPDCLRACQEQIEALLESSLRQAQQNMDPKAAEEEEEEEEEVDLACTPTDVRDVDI

SMILES	IC50 (cyclin D1/cdk 4 enzyme; [1])	IC50 (cyclin E/CDK2 enzyme; [2])	IC50 (BT474)	IC50 (cyclin B/CDK1 enzyme; [3])	IC50 (LoVo)	melting point	IC50 (MCF-7)	IC50 (HCT-116)	IC50 (cyclin D1/cdk 4 enzyme; [4])	IC50 (cyclin E/CDK2 enzyme; [5])	IC50 (cyclin B/CDK1 enzyme; [6])
CN(C)C1CCN(Cc2ccc(N/C=C3\C(=O)NC(=O)c4ccc(I)cc43)cc2)C1 (stereo not shown) [Example 422, (4Z)-4-{[(4-{[3-(Dimethylamino)pyrrolidin-1-yl]methyl}phenyl)amino]methylene}-6-iodoisoquinoline-1,3(2H,4H)-dione]	0.29 µM	> 50 µM	3.7 µM	> 50 µM	3.8 µM	134 to 135 °C	5.6 µM	2 µM	–	–	–
CN(C)C[C@@H]1CCCN1Cc1ccc(N/C=C2\C(=O)NC(=O)c3ccc(I)cc32)cc1 [Example 423]	1.4 µM	> 50 µM	5.4 µM	> 50 µM	4.5 µM	130 to 131 °C	4.3 µM	3.8 µM	–	–	–
CN(C)CCCN1CCC(c2ccc(N/C=C3\C(=O)NC(=O)c4ccc(I)cc43)cc2)CC1 [Example 425, (4Z)-4-{[(4-{1-[3-(Dimethylamino)propyl]piperidin-4-yl}phenyl)amino]methylene}-6-iodoisoquinoline-1,3(2H,4H)-dione]	0.36 µM	37.1 µM	1.5 µM	44.4 µM	1.2 µM	139 to 140 °C	2.6 µM	0.6 µM	–	–	–
O=C1NC(=O)c2ccc(I)cc2/C1=C/Nc1ccc(CN2CCCCC2CO)cc1 (stereo not shown) [Example 439, (4Z)-4-{[(4-{[2-(Hydroxymethyl)piperidin-1-yl]methyl}phenyl)amino]methylene}-6-iodoisoquinoline-1,3(2H,4H)-dione]	0.86 µM	> 50 µM	0.38 µM	> 50 µM	2.5 µM	205 to 206 °C	0.75 µM	3.5 µM	–	–	–
O=C1NC(=O)c2ccc(I)cc2/C1=C/Nc1ccc(CN2CCC(O)CC2)cc1 [Example 440, (4Z)-4-[({4-[(4-Hydroxypiperidin-1-yl)methyl]phenyl}amino)methylene]-6-iodoisoquinoline-1,3(2H,4H)-dione]	0.35 µM	19.3 µM	1.6 µM	27.7 µM	4 µM	255 to 256 °C	1.6 µM	3.2 µM	–	–	–
CN1CCN(c2ccc(N/C=C3\C(=O)NC(=O)c4ccc(Br)cc43)nc2)CC1 [Example 442, (4Z)-6-Bromo-4-({[5-(4-methylpiperazin-1-yl)pyridin-2-yl]amino}methylene)isoquinoline-1,3(2H,4H)-dione]	3.3 µM	25.3 µM	3.7 µM	15.8 µM	4.1 µM	191 to 192 °C	2.4 µM	1.1 µM	–	–	–
CN1CCN(c2ccc(N/C=C3\C(=O)NC(=O)c4ccc(-c5coc(C=O)c5)cc43)nc2)CC1 [Example 448, 4-[(4Z)-4-({[5-(4-Methylpiperazin-1-yl)pyridin-2-yl]amino}methylene)-1,3-dioxo-1,2,3,4-tetrahydroisoquinolin-6-yl]-2-furaldehyde]	0.04 µM	> 50 µM	6.6 µM	10 µM	4.1 µM	183 to 184 °C	5 µM	2.4 µM	–	–	–
CN1CCCC1c1ccc(N/C=C2\C(=O)NC(=O)c3ccc(-n4cccc4)cc32)nc1 (stereo not shown) [Example 459]	–	–	17.3 µM	–	9.5 µM	186 to 196 °C (dec.)	10.7 µM	13 µM	3.7 µM	> 50 µM	> 50 µM
CN1CCCC1c1ccc(N/C=C2\C(=O)NC(=O)c3ccc(I)cc32)nc1 (stereo not shown) [Example 460, (Z)-6-Iodo-4-((5-(1-methylpyrrolidin-2-yl)pyridin-2-ylamino)methylene)isoquinoline-1,3(2H,4H)-dione]	–	–	10 µM	–	9.4 µM	174 to 206 °C (dec.)	10.3 µM	8.3 µM	18.3 µM	> 50 µM	> 50 µM
COC[C@@H]1CCCN1Cc1ccc(N/C=C2\C(=O)NC(=O)c3ccc(-c4ccco4)cc32)cc1 [Example 467, (4Z)-6-(2-Furyl)-4-{[(4-{[(2S)-2-(methoxymethyl)pyrrolidin-1-yl]methyl}phenyl)amino]methylene}isoquinoline-1,3(2H,4H)-dione]	–	–	3.6 µM	–	2.4 µM	159 to 160 °C	1.9 µM	2.3 µM	0.21 µM	> 50 µM	> 50 µM
C[C@@H]1CN(c2ccc(N/C=C3\C(=O)NC(=O)c4ccc(-c5ccoc5)cc43)nc2)C[C@H](C)N1 [Example 468, (4Z)-4-[({5-[(3R,5S)-3,5-Dimethylpiperazin-1-yl]pyridin-2-yl}amino)methylene]-6-(3-furyl)isoquinoline-1,3(2H,4H)-dione]	–	–	2.1 µM	–	1.6 µM	230 to 231 °C	1.5 µM	1.1 µM	0.17 µM	> 50 µM	> 50 µM
C[C@@H]1CN(c2ccc(N/C=C3\C(=O)NC(=O)c4ccc(Br)cc43)nc2)C[C@H](C)N1 [Example 469, (4Z)-6-Bromo-4-[({5-[(3R,5S)-3,5-dimethylpiperazin-1-yl]pyridin-2-yl}amino)methylene]isoquinoline-1,3(2H,4H)-dione]	–	–	2.2 µM	–	1.2 µM	245 to 246 °C	2.9 µM	0.8 µM	2.2 µM	17.6 µM	2.7 µM
CCC(=O)Nc1cnc(CN/C=C2\C(=O)NC(=O)c3ccc(I)cc32)cc1O [Example 470, N-(4-Hydroxy-6-{[(6-iodo-1,3-dioxo-2,3-dihydro-1H-isoquinolin-4-ylidenemethyl)-amino]-methyl}-pyridin-3-yl)-propionamide]	–	–	2 µM	–	19.1 µM	210 to 218 °C (dec.)	37.8 µM	20.9 µM	0.05 µM	0.19 µM	2.5 µM
CCCOc1cn(C)c(CN/C=C2\C(=O)NC(=O)c3ccc(I)cc32)cc1=O [Example 471, 6-Iodo-4-{[(1-methyl-4-oxo-5-propoxy-1,4-dihydro-pyridin-2-ylmethyl)-amino]-methylene}-4H-isoquinoline-1,3-dione]	–	–	21.9 µM	–	> 50 µM	176 to 196 °C (dec.)	> 50 µM	> 50 µM	0.007 µM	28.7 µM	> 50 µM
